Data taken from patent publication US6451576B1, “Sesquiterpene synthases from grand fir (Abies grandis), and methods of use” (Washington State University Research Foundation, priority 1998, dated 2002).

Biological target: T1, recombinant AG1 protein (SEQ ID No:13), E-α-bisabolene synthase (Abies grandis, UniProt O81086)
T1 construct: GST (fusion partner of vector pGEX-4T-2); made in house; host or cells: E. coli XL1-Blue/pGAG1
T1 sequence (O81086 1-817): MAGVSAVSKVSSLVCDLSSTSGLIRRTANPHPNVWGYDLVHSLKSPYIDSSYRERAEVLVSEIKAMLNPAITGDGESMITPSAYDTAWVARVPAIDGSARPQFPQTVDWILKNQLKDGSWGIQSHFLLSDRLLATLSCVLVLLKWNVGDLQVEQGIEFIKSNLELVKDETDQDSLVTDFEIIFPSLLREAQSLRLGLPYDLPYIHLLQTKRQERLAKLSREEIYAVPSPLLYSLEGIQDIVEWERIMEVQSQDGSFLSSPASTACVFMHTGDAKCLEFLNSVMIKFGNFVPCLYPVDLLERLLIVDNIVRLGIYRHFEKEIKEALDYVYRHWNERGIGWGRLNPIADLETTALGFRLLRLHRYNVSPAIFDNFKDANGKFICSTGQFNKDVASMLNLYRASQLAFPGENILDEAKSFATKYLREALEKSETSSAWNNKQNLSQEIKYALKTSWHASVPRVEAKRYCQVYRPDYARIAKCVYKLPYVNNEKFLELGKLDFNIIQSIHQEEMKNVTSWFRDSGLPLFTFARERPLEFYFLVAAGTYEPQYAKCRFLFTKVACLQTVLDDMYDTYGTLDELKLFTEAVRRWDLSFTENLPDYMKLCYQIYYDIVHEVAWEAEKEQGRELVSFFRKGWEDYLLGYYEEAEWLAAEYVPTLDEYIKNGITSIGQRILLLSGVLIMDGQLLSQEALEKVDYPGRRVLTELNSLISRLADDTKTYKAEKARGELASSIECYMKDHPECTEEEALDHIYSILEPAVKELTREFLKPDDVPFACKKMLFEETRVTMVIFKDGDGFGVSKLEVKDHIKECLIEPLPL
Experiment: Monoterpene, sesquiterpene and diterpene synthase assays of recombinant AG1 protein expressed in E. coli
Type: biochemical
Conditions: extracts of XL1-Blue/pGAG1, 31° C., 2 h
Procedure: Expression of cDNA Clone AG1 (SEQ ID No:12) in E. coli. Plasmid pGAG1 was transformed into E. coli XL1-Blue (Sambrook, J., et al., (1989) Molecular Cloning: A Laboratory Manual (Cold Spring Harbor Lab., Cold Spring Harbor, N.Y.), 2nd Ed). The resulting bacterial strain E. coli XL1-Blue/pGAG1 was grown at 37° C. in 5 ml of LB medium (Sambrock, J., et al., (1989) Molecular Cloning. A Laboratory Manual (Cold Spring Harbor Lab., Cold Spring Harbor, N.Y.), 2nd Ed) supplemented with 100 μg ampicillin/ml and 12.5 μg tetracycline/ml to A600=1.0, then induced by addition of 1 mM isopropyl-1-thio-β-D-galactopyranoside and grown for another 12 h at 20° C. Cells were harvested by centrifugation (2000×g, 10 min) and resuspended in either 1 ml monoterpene synthase assay buffer, 1 ml sesquiterpene synthase assay buffer, or 1 ml diterpene synthase assay buffer (Bohlmann, J., et al., J. Biol. Chem. 272:21784-21792(1997)). […]
Characterization of Products of Recombinant E-α-Bisabolene Synthase Encoded by cDNA Clone AG1 (SEQ ID No:12) in E. coli. […] Mass spectra were compared to those of authentic standards and analyzed by Hewlett-Packard Chemstation software. […]

With `CC(C)=CCC/C(C)=C/COP(=O)(O)OP(=O)(O)O` [geranyl diphosphate, reference compound] the “conversion of substrate to terpene olefin” value was “inefficiently converted”.
`CC(C)=CCC/C(C)=C/CC/C(C)=C/CC/C(C)=C/COP(=O)(O)OP(=O)(O)O` [geranylgeranyl diphosphate, reference compound] was tested, and the “conversion of substrate to terpene olefin” value was “no diterpene synthase activity”.
